According to paper PMC8956739, “A synthetic lipopeptide targeting top-priority multidrug-resistant Gram-negative pathogens” (Nature Communications, 2022):
Values joined by “and” are separate entries in the source; they are usually repeats but may differ in a detail not shown here. Identical values can stand only once.

How the values were obtained:
[1] = system: Swiss mice; test: Acute toxicity in mice (maximum tolerated dose, IV bolus); format: in vivo, mouse; settings: for MTD, single replicate: replicates 1-4
Method: Lipopeptide solutions were prepared in 0.9% saline and stored at 4 °C before use. Swiss mice (female, 7-week-old, 22–28 g) were used in the study. A mouse was administered an intravenous bolus of the lipopeptide (mg/kg free base) through a lateral tail vein (≤0.1 mL). After the injection, the mouse was released back into the cage and monitored for clinical signs of toxicity from 0 to 24 h after injection as follows: every 10 min in the first 2 h, every half hour from 2 to 4 h, every hour from 4 to 12 h, and every 2 h from 12 to 24 h.

[2] = system: P. aeruginosa ATCC 27853; test: Neutropenic mouse bloodstream infection model; format: in vivo; settings: single IV dose 4 mg/kg; for Log10 CFU/mL blood at 4 h, Mean / Δlog10 CFU/mL blood (mean) / Log10 CFU/mL blood at 4 h, single mouse: 4 h; for Δlog10 CFU/mL blood (mean): treated minus control, mean of replicates; for Δlog10 CFU/mL blood (mean) / Log10 CFU/mL blood at 4 h, single mouse / Delta Log10 CFU/mL blood at 4 h, single mouse: 4 mg/kg; for Delta Log10 CFU/mL blood at 4 h, single mouse: treated mouse minus mean of vehicle mice
In short: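 Female Swiss mice made neutropenic with cyclophosphamide (150 mg/kg day −4, 100 mg/kg day −1), infected IV with 50 µL of 4 × 10^8 CFU/mL. Lipopeptide 4 mg/kg (free base) IV at 2 h post-inoculation, n = 3. Efficacy = Δlog10 CFU/mL blood versus saline at 4 h post-dose.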

[3] = system: A. baumannii AB5075; test: Transcriptomic analysis (RNA-Seq) of bacteria; format: cell-based, Acinetobacter baumannii; settings: for logFC (Differential gene expression for all genes), Geneid ABUW_RS00005 / logFC (Differential gene expression for all genes), Geneid ABUW_RS00020 / logFC (Fold change), gene ABUW_RS00010 / logFC (Fold change), gene ABUW_RS00030 / logFC (Fold change), gene ABUW_RS00035 / logFC (Fold change), gene recF (ABUW_RS00015) / 4h_1h logFC (Differential gene expression for all genes), Geneid ABUW_RS00005 / 4h_1h logFC (Differential gene expression for all genes), Geneid ABUW_RS00010 / 4h_1h logFC (Differential gene expression for all genes), Geneid ABUW_RS00015 / 4h_1h logFC (Differential gene expression for all genes), Geneid ABUW_RS00020: RNA-Seq A. baumannii AB5075; for log2FC, gene ABUW_RS01945 (acyl-CoA thioesterase II) / log2FC, gene ABUW_RS02545 (acyl-CoA thioesterase) / log2FC, gene ABUW_RS05045 (acyl-CoA thioesterase) / log2FC, gene ABUW_RS17575 (acyl-CoA thioesterase): pathway Fatty Acid and Lipid Degradation; for 4h_1h logFC (Differential gene expression for all genes), Geneid ABUW_RS00005 / 4h_1h logFC (Differential gene expression for all genes), Geneid ABUW_RS00010 / 4h_1h logFC (Differential gene expression for all genes), Geneid ABUW_RS00015 / 4h_1h logFC (Differential gene expression for all genes), Geneid ABUW_RS00020: 4h vs 1h
Method: Mid-log phase A. baumannii AB5075 (~10^8 CFU/mL) in CaMHB was treated with colistin (2 and 8 μg/mL), F287, F319 or F365 (equimolar concentration to colistin) for 1 and 4 h. Total RNA was extracted using TRIzol Reagent (Invitrogen, USA) and RNeasy Mini Kit (Qiagen, Germany). Quality check of RNA samples was conducted with NanoDrop (Thermo Fisher Scientific, USA) and Agilent 2100 Bioanalyzer (Agilent Technologies, USA) for sequencing (150 bp paired-end) at Genewiz (Shanghai, China). Raw reads were aligned to A. baumannii AB5075 genome (GCF_000963815, https://www.ncbi.nlm.nih.gov/assembly/GCF_000963815.1/) using subread-aligner (subread 2.0.1) and summarized by featureCounts (subread 2.0.1). Principal component analysis (PCA) was conducted with mixOmics 6.14.1 in R. Differentially expressed genes were determined using limma 3.46.0 with a combination of fold change ≥ 2 and false discovery rate (FDR, by Benjamini–Hochberg algorithm) adjusted P-value ≤ 0.05 (n = 3). Enrichment analysis of gene differential expression in AB5075 was conducted using BioCyc (A. baumannii AB5075, version 25.5). UpSetR 1.4.0, ComplexHeatmap 2.6.2 and circlize 0.4.13 were used for data visualization. Raw data were deposited in Short Reads Archive (SRA) database under accession numbers SRR15235669-SRR15235725.

[4] = system: MDR clinical isolates of Enterobacterales (n = 177, 152 carbapenem-resistant); test: Extended MIC screening, MDR clinical isolates; format: cell-based
Method: MICs were determined in cation-adjusted Mueller–Hinton broth (CaMHB) by the broth micro-dilution method against ATCC strains and clinical isolates. MICs in the presence of Survanta® were determined as described above against P. aeruginosa ATCC 27853. In the 100 μL of fresh CaMHB containing polymyxins, 10% Survanta® (v/v, 2.5 mg/mL phospholipids) was added. MICs in the presence and absence of Survanta® were compared to determine the effect of binding to lung surfactant on the antibacterial activity of polymyxins.

Colistin [reference compound]
MTD, single replicate [1]: 6 mg/kg and 5.8 mg/kg and 5 mg/kg | average maximum tolerated dose (MTD) ([1]; single IV bolus dose, n = 4): 5.3 mg/kg | Log10 CFU/mL blood at 4 h, Mean [2]: 5.05 Log10 CFU/mL blood | Δlog10 CFU/mL blood (mean) [2]: -2.39 log10 CFU/mL blood | Δlog10 CFU/mL blood (mean) ([2]; listed as COL): −2.39 log10 CFU/mL blood | Log10 CFU/mL blood at 4 h, single mouse [2]: 5.25 Log10 CFU/mL blood and 4.89 Log10 CFU/mL blood and 5.02 Log10 CFU/mL blood | Delta Log10 CFU/mL blood at 4 h, single mouse [2]: -2.19 Log10 CFU/mL blood and -2.56 Log10 CFU/mL blood and -2.42 Log10 CFU/mL blood | logFC (Differential gene expression for all genes), Geneid ABUW_RS00005 ([3]; H vs Cont, 1h): -0.1415 | logFC (Differential gene expression for all genes), Geneid ABUW_RS00020 ([3]; H vs Cont, 1h): 0.3148 | logFC (Fold change), gene ABUW_RS00010 ([3]; H vs Cont, 1h): 0.4448 | logFC (Fold change), gene ABUW_RS00030 ([3]; H vs Cont, 1h): -0.4924 | logFC (Fold change), gene ABUW_RS00035 ([3]; H vs Cont, 1h): 1.135 | logFC (Fold change), gene recF (ABUW_RS00015) ([3]; H vs Cont, 1h): -0.2294 | log2FC, gene ABUW_RS01945 (acyl-CoA thioesterase II) ([3]; H vs Cont, 1h): 0.3504 | log2FC, gene ABUW_RS02545 (acyl-CoA thioesterase) ([3]; H vs Cont, 1h): 1.4185 | log2FC, gene ABUW_RS05045 (acyl-CoA thioesterase) ([3]; H vs Cont, 1h): 0.5564 | log2FC, gene ABUW_RS17575 (acyl-CoA thioesterase) ([3]; H vs Cont, 1h): -1.353 | logFC (Differential gene expression for all genes), Geneid ABUW_RS00005 ([3]; H vs Cont, 4h): -0.09217 | logFC (Differential gene expression for all genes), Geneid ABUW_RS00020 ([3]; H vs Cont, 4h): -0.1513 | logFC (Fold change), gene ABUW_RS00010 ([3]; H vs Cont, 4h): 1.069 | logFC (Fold change), gene ABUW_RS00030 ([3]; H vs Cont, 4h): -0.5349 | logFC (Fold change), gene ABUW_RS00035 ([3]; H vs Cont, 4h): 1.256 | logFC (Fold change), gene recF (ABUW_RS00015) ([3]; H vs Cont, 4h): -1.096 | log2FC, gene ABUW_RS01945 (acyl-CoA thioesterase II) ([3]; H vs Cont, 4h): -0.7138 | log2FC, gene ABUW_RS02545 (acyl-CoA thioesterase) ([3]; H vs Cont, 4h): 0.6589 | log2FC, gene ABUW_RS05045 (acyl-CoA thioesterase) ([3]; H vs Cont, 4h): 0.2411 | log2FC, gene ABUW_RS17575 (acyl-CoA thioesterase) ([3]; H vs Cont, 4h): -2.464 | 4h_1h logFC (Differential gene expression for all genes), Geneid ABUW_RS00005 ([3]; H): -0.3521 | 4h_1h logFC (Differential gene expression for all genes), Geneid ABUW_RS00010 ([3]; H): 0.7488 | 4h_1h logFC (Differential gene expression for all genes), Geneid ABUW_RS00015 ([3]; H): -1.211 | 4h_1h logFC (Differential gene expression for all genes), Geneid ABUW_RS00020 ([3]; H): 0.2283 | logFC (Differential gene expression for all genes), Geneid ABUW_RS00005 ([3]; L vs Cont, 1h): -0.03172 | logFC (Differential gene expression for all genes), Geneid ABUW_RS00020 ([3]; L vs Cont, 1h): 0.1157 | logFC (Fold change), gene ABUW_RS00010 ([3]; L vs Cont, 1h): -0.05024 | logFC (Fold change), gene ABUW_RS00030 ([3]; L vs Cont, 1h): -0.1351 | logFC (Fold change), gene ABUW_RS00035 ([3]; L vs Cont, 1h): -0.09136 | logFC (Fold change), gene recF (ABUW_RS00015) ([3]; L vs Cont, 1h): -0.09027 | log2FC, gene ABUW_RS01945 (acyl-CoA thioesterase II) ([3]; L vs Cont, 1h): 0.4895 | log2FC, gene ABUW_RS02545 (acyl-CoA thioesterase) ([3]; L vs Cont, 1h): 0.2839 | log2FC, gene ABUW_RS05045 (acyl-CoA thioesterase) ([3]; L vs Cont, 1h): -0.5862 | log2FC, gene ABUW_RS17575 (acyl-CoA thioesterase) ([3]; L vs Cont, 1h): 0.3237 | logFC (Differential gene expression for all genes), Geneid ABUW_RS00005 ([3]; L vs Cont, 4h): -0.01117 | logFC (Differential gene expression for all genes), Geneid ABUW_RS00020 ([3]; L vs Cont, 4h): -0.1061 | logFC (Fold change), gene ABUW_RS00010 ([3]; L vs Cont, 4h): 0.1057 | logFC (Fold change), gene ABUW_RS00030 ([3]; L vs Cont, 4h): -0.4634 | logFC (Fold change), gene ABUW_RS00035 ([3]; L vs Cont, 4h): 0.03384 | logFC (Fold change), gene recF (ABUW_RS00015) ([3]; L vs Cont, 4h): -0.08717 | log2FC, gene ABUW_RS01945 (acyl-CoA thioesterase II) ([3]; L vs Cont, 4h): 0.543 | log2FC, gene ABUW_RS02545 (acyl-CoA thioesterase) ([3]; L vs Cont, 4h): -0.1794 | log2FC, gene ABUW_RS05045 (acyl-CoA thioesterase) ([3]; L vs Cont, 4h): 0.3247 | log2FC, gene ABUW_RS17575 (acyl-CoA thioesterase) ([3]; L vs Cont, 4h): -0.8383 | 4h_1h logFC (Differential gene expression for all genes), Geneid ABUW_RS00005 ([3]; L): -0.3028 | 4h_1h logFC (Differential gene expression for all genes), Geneid ABUW_RS00010 ([3]; L): -0.2642 | 4h_1h logFC (Differential gene expression for all genes), Geneid ABUW_RS00015 ([3]; L): -0.2929 | 4h_1h logFC (Differential gene expression for all genes), Geneid ABUW_RS00020 ([3]; L): 0.3892

Polymyxin B [reference compound]
Number of isolates ([4]; isolates with MIC 0.05 µg/mL): 0 | Number of isolates ([4]; isolates with MIC 0.125 µg/mL): 0 | Number of isolates ([4]; isolates with MIC 0.25 µg/mL): 0 | Number of isolates ([4]; isolates with MIC 0.5 µg/mL): 0 | Number of isolates ([4]; isolates with MIC 1 µg/mL): 77 | Number of isolates ([4]; isolates with MIC 2 µg/mL): 76 | Number of isolates ([4]; isolates with MIC 4 µg/mL): 2 | Number of isolates ([4]; isolates with MIC 8 µg/mL): 2 | Number of isolates ([4]; isolates with MIC 16 µg/mL): 6 | Number of isolates ([4]; isolates with MIC 32 µg/mL): 3 | Number of isolates ([4]; isolates with MIC 64 µg/mL): 6 | Number of isolates ([4]; isolates with MIC >64 µg/mL): 5 | MTD, single replicate [1]: 7 mg/kg and 5 mg/kg and 4.6 mg/kg | Log10 CFU/mL blood at 4 h, Mean [2]: 4.76 Log10 CFU/mL blood | Δlog10 CFU/mL blood (mean) [2]: -2.69 log10 CFU/mL blood | Δlog10 CFU/mL blood (mean) ([2]; listed as PMB): −2.69 log10 CFU/mL blood | Log10 CFU/mL blood at 4 h, single mouse [2]: 4.60 Log10 CFU/mL blood and 4.85 Log10 CFU/mL blood and 4.82 Log10 CFU/mL blood | Delta Log10 CFU/mL blood at 4 h, single mouse [2]: -2.84 Log10 CFU/mL blood and -2.60 Log10 CFU/mL blood and -2.63 Log10 CFU/mL blood
